From patent EP4786487A1, “PEPTIDE” (Peptidream Inc, priority 2023, dated 2025)
Where two headings read alike, the source gives them in different places. Starred links: 1 amine or outer side, 2 acyl side, 3 side chain; linkers in the order of their positions; H or OH if unused. Positions of bridges follow the written chain, without caps; N, C: chain ends. Non-standard residues stand in square brackets, D forms with d. Residues, ends and D or L forms follow the SMILES beside them. Groups on a side chain read outwards from the residue. *: point of attachment. Trp(6-OH,1-(4-HO2C-Ph)) = N[C@@H](Cc1cn(-c2ccc(C(=O)O)cc2)c2cc(O)ccc12)C(=O)O; Phe(3-OCH2COOH) = N[C@@H](Cc1cccc(OCC(=O)O)c1)C(=O)O; Piperidine(4-CH2CH2CONH2) = NC(=O)CCC1CCN(*)CC1; Phe(4-COOH) = N[C@@H](Cc1ccc(C(=O)O)cc1)C(=O)O; Trp(7-aza) = N[C@@H](Cc1c[nH]c2ncccc12)C(=O)O; Piperazinyl(4-CH2COOH) = O=C(O)CN1CCN(*)CC1; Piperidinyl(4-CH2COOH) = O=C(O)CC1CCN(*)CC1; Phe(3-OMe) = COc1cccc(C[C@H](N)C(=O)O)c1; Gly(decyl) = CCCCCCCCCC[C@H](N)C(=O)O; Gly(N(CH2)3COOH) = O=C(O)CCCNCC(=O)O; X1 = CCCCCCC[C@H](N[*:1])C(=O)[*:2]; NMeF = CN[C@@H](Cc1ccccc1)C(=O)O; 4Pal = N[C@@H](Cc1ccncc1)C(=O)O; Carboxymethyl = O=C(O)C*; NMeA = CN[C@@H](C)C(=O)O; Dap = NC[C@H](N)C(=O)O; CO = O=C([*:1])[*:2]; Sar = CNCC(=O)O

Legend:
Format in all cases: cell-based
[1] = target: T1, GDF-11 (Homo sapiens, UniProt O95390); experiment: Reporter gene assay for myostatin signaling in HepG2 cell line, Evaluation Procedure (1), GDF-11 inhibition; settings: HepG2, luciferase reporter, Evaluation Procedure (1), Method D; read-out: IC50 (Luciferase) GDP-11 HepG2
T1 construct: purchased R&D systems 1958-GD-G8/CF
T1 sequence (O95390 299-407): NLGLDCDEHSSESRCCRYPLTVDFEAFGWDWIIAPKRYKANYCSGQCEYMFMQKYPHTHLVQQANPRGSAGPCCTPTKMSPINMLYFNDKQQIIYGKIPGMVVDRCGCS
Protocol: (§1) In this Example, the in vitro myostatin inhibitory effects of the peptides synthesized in Examples 1 and 2 were evaluated using a reporter gene assay for myostatin signaling in HepG2 cell line.
(§2) HepG2 cell line (HB-8065, ATCC) cultured in EMEM (055-08975, WAKO Industries) containing 10% FBS (10270106, Gibco) and 50 µg/mL gentamicin (11980-14, Nacalai Tesque) was seeded in 96-well plates (167008, Thermo) at 2.0 × 10^4 cells/well and incubated in a CO2 incubator (37°C, 5% CO2) for 24 hours. The pGL3(CAGA)12-luc plasmid, namely a pGL3 vector (E1751, Promega) having a luciferase gene inserted downstream of a promoter sequence with 12 CAGA repeats attached, was added to the wells along with a transfection reagent (X-treamGENE9 DNA Transfection Reagent, 6365809001, Roche) at a concentration of 0.04 µg/well. The cell line was cultured in a CO2 incubator (37°C, 5% CO2) for 24 hours for transfection. The medium was discarded and replaced with EMEM containing 50 µL/well of 0.1% bovine serum albumin (A7030, Sigma) and 50 µg/mL gentamicin, and incubated in a CO2 incubator (37°C, 5% CO2) for 2 hours.
(§3) Myostatin (788-G8/C, R&D systems) or GDF-11 (1958-GD-G8/CF, R&D systems) was added so that the final concentrations were those listed in Table 5.
(§4) A 4-fold dilution series of various peptides synthesized in Examples 1 and 2 was added to achieve 0.006-100 nmol/L (myostatin inhibition) and 0.12-2000 nmol/L (GDF-11 inhibition). At this time, blank wells, in which neither myostatin, GDF-11, nor each peptide was added, were also prepared and incubated in a CO2 incubator (37°C, 5% CO2) for 20 to 24 hours.
(§5) The medium containing the cells was removed, and a mixture containing PBS (14190144, Thermo) and a chromogenic substrate One-Glo Luciferase Assay System (E6120, Promega) at a ratio of 1:1 was added to each well at 100 µL/well. This was stirred with a plate shaker for 5 min and transferred to a 384-well plate (3570, Corning) at a volume of 20 µL/well.
(§6) The plate was centrifuged at 1,000 × g for 1 min and the luminescence signal (700 nm luminescence) was measured using a plate reader (Envision 2104, PerkinElmer). Based on the measured values, IC50 values of the peptides were calculated using software (Prism 9, GraphPad). […]
(§7) In this Example, the in vitro myostatin inhibitory effects of the peptides synthesized in Examples 10 and 11 were evaluated according to the Evaluation Procedure (1) in Example 3.

[2] = target: T2, Myostatin (Homo sapiens, UniProt O14793); experiment: Reporter gene assay for myostatin signaling in HepG2 cell line, Evaluation Procedure (1), myostatin inhibition; settings: HepG2, luciferase reporter, Evaluation Procedure (1), Method D
T2 construct: active myostatin (also called mature myostatin) is a homodimer consisting of two C-terminal growth factor domains; purchased R&D systems 788-G8/CF
T2 sequence (O14793 267-375): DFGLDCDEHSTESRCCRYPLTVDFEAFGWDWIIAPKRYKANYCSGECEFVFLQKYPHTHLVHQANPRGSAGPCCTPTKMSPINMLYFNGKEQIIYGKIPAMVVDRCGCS
Protocol: as §1, §2, §3, §4, §5, §6, §7

[3] = target: T1, GDF-11; experiment: HepG2 reporter gene assay, Evaluation Procedure (2): 2-concentrations assay, GDF-11 inhibition; settings: for inhibition at 0.03 µM: HepG2, peptide 30nM, read-out: GDF11 Inhibition 30nM; for inhibition at 0.03 µM / inhibition at 0.1 µM: GDF-11 10 ng/mL; for inhibition at 0.1 µM: HepG2, peptide 100nM, read-out: GDF11 Inhibition 100nM; for inhibition: read-out: inhibition rate (GDF-11 inhibition assay)
How it was run: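 HepG2 cells carrying the transfected pGL3(CAGA)12-luc reporter, a pGL3 vector with luciferase placed downstream of 12 CAGA repeats, were stimulated with GDF-11 at a final 10 ng/mL together with test peptide. Blank wells received no GDF-11 and no peptide. Plates were incubated 20 to 24 hours at 37°C with 5% CO2. Luminescence from One-Glo substrate was read to calculate percent inhibition.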

[4] = target: T2, Myostatin; experiment: HepG2 reporter gene assay, Evaluation Procedure (2): 2-concentrations assay, myostatin inhibition; settings: HepG2
How it was run: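 Myostatin inhibition was measured in a luciferase reporter assay using HepG2 cells transfected with a pGL3 vector containing 12 CAGA repeats upstream of luciferase. After 20 to 24 hours with 10 ng/mL myostatin, cells received One-Glo:PBS (1:1) at 100 µL/well, were shaken for 5 min, and 20 µL/well was moved to 384-well plates and read on an Envision 2104.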

[5] = peptide 30nM, Myostatin 10 ng/mL, read-out: Myostatin Inhibition 30nM
[6] = peptide 100nM, Myostatin 10 ng/mL, read-out: Myostatin Inhibition 100nM

Row | Structure (SMILES) | IC50 [1] [nM] | IC50 [2] [nM] | inhibition at 0.03 µM [3] [%] | inhibition at 0.1 µM [3] [%] | inhibition at 0.03 µM [4, 5] [%] | inhibition at 0.1 µM [4, 6] [%] | inhibition ([3]; HepG2, first GDF-11 column of Table 7-3/7-4, GDF-11 10 ng/mL, peptide at the lower of the 2 concentrations) [%] | inhibition ([3]; HepG2, second GDF-11 column of Table 7-3/7-4, GDF-11 10 ng/mL, peptide at the higher of the 2 concentrations) [%] | inhibition at 0.1 µM ([4]; Table 7-3/7-4, myostatin 10 ng/mL, peptide at the higher of the 2 concentrations, read-out: inhibition rate (myostatin inhibition assay)) [%] | inhibition at 0.03 µM ([4]; Table 7-3/7-4, myostatin 10 ng/mL, peptide at the lower of the 2 concentrations, read-out: inhibition rate (myostatin inhibition assay)) [%]
1 | CCCCCCC[C@@H]1NC(=O)[C@H](Cc2ccccc2)N(C)C(=O)[C@H](CCCNC(=N)N)NC(=O)[C@H](Cc2ccc(C(=O)O)cc2)NC(=O)[C@H](Cc2cccc(OCC(=O)O)c2)NC(=O)[C@H]2CCCN2C(=O)[C@H]([C@@H](C)CC)NC(=O)[C@H](Cc2ccccc2)N(C)C(=O)[C@H](Cc2ccc(O)cc2)NC(=O)[C@H](Cc2cn(-c3ccc(C(=O)O)cc3)c3cc(O)ccc23)NC(=O)[C@H](C)NC(=O)CN(CCCC(=O)O)C(=O)CSC[C@H](C(=O)N2CCC(CCC(N)=O)CC2)NC(=O)[C@H](Cc2ccccc2)N(C)C(=O)[C@H](C)N(C)C1=O [Myostatin_99_v488] ({CH2CO}-[Gly(N(CH2)3COOH)]A[Trp(6-OH,1-(4-HO2C-Ph))]Y[NMeF]I[dP][Phe(3-OCH2COOH)][Phe(4-COOH)]R[NMeF][X1][NMeA][NMeF][dC]-{Piperidine(4-CH2CH2CONH2)}; thioether N-15) | 53.2 | 0.18 |  |  |  |  |  |  |  | 
2 | CC[C@H](C)[C@@H]1NC(=O)[C@H](Cc2ccccc2)N(C)C(=O)[C@H](Cc2ccc(O)cc2)NC(=O)[C@H](Cc2c[nH]c3ccccc23)NC(=O)[C@H](CN)NC(=O)[C@H](C)NC(=O)CSC[C@@H](C(N)=O)NC(=O)[C@H](Cc2ccccc2)N(C)C(=O)[C@H](C)N(C)C(=O)[C@H](CC(C)C)NC(=O)[C@H](Cc2ccccc2)N(C)C(=O)[C@H](CCCNC(=N)N)NC(=O)[C@H](Cc2ccc(O)cc2)NC(=O)[C@H](Cc2ccc(O)cc2)NC(=O)CN(C)C1=O [Myostatin_000099_02Dap] ({CH2CO}-A[Dap]WY[NMeF]I[Sar]YYR[NMeF]L[NMeA][NMeF]C-NH2; thioether N-15) |  |  | 0 | 2 | 50 | 82 |  |  |  | 
3 | CC[C@H](C)[C@@H]1NC(=O)[C@H](Cc2ccccc2)N(C)C(=O)[C@H](Cc2ccc(O)cc2)NC(=O)[C@H](Cc2c[nH]c3ncccc23)NC(=O)[C@H](C)NC(=O)CN(CCCC(=O)O)C(=O)CSC[C@H](C(=O)O)NC(=O)[C@H](Cc2ccccc2)N(C)C(=O)[C@H](C)N(C)C(=O)[C@H](CC(C)C)NC(=O)[C@H](Cc2ccccc2)N(C)C(=O)[C@H](CCCNC(=N)N)NC(=O)[C@H](Cc2ccc(OCC(=O)O)cc2)NC(=O)[C@H](Cc2cccc(OC)c2)NC(=O)[C@H](C)N(C)C1=O [Myostatin_99_v127] ({CH2CO}-[Gly(N(CH2)3COOH)]A[Trp(7-aza)]Y[NMeF]I[NMeA][Phe(3-OMe)]Y(Carboxymethyl)R[NMeF]L[NMeA][NMeF][dC]-OH; thioether N-15) |  |  | 0 | 0 | 31 | 57 |  |  |  | 
4 | CCCCCCCCCC[C@@H]1NC(=O)[C@H](Cc2ccccc2)N(C)C(=O)[C@H](CCCNC(=N)N)NC(=O)[C@H](Cc2ccc(C(=O)O)cc2)NC(=O)[C@H](Cc2cccc(OCC(=O)O)c2)NC(=O)CN(C)C(=O)[C@H]([C@@H](C)CC)NC(=O)[C@H](Cc2ccccc2)N(C)C(=O)[C@H](Cc2ccc(O)cc2)NC(=O)[C@H](Cc2c[nH]c3ccccc23)NC(=O)[C@@H](CCCCNC(=O)N2CCN(CC(=O)O)CC2)NC(=O)[C@H](C)NC(=O)CSC[C@H](C(=O)N2CCN(CC(=O)O)CC2)NC(=O)[C@H](Cc2ccccc2)N(C)C(=O)[C@H](C)N(C)C1=O [Myostatin_99_v264] ({CH2CO}-A[dK]([CO-Piperazinyl(4-CH2COOH)])WY[NMeF]I[Sar][Phe(3-OCH2COOH)][Phe(4-COOH)]R[NMeF][Gly(decyl)][NMeA][NMeF][dC]-{Piperazinyl(4-CH2COOH)}; thioether N-15) |  |  | 24 | 72 | 100 | 100 |  |  |  | 
5 | CCCCCCC[C@@H]1NC(=O)[C@H](Cc2ccccc2)N(C)C(=O)[C@H](CCCNC(=N)N)NC(=O)[C@H](Cc2ccc(C(=O)O)cc2)NC(=O)[C@H](Cc2cccc(OCC(=O)O)c2)NC(=O)CN(C)C(=O)[C@H]([C@@H](C)CC)NC(=O)[C@H](Cc2ccccc2)N(C)C(=O)[C@H](Cc2ccc(O)cc2)NC(=O)[C@H](Cc2c[nH]c3ccccc23)NC(=O)[C@H](C)NC(=O)[C@H](C)NC(=O)CSC[C@H](C(=O)N2CCC(CC(=O)O)CC2)NC(=O)[C@H](Cc2ccccc2)N(C)C(=O)[C@H](C)N(C)C1=O [Myostatin_99_v313] ({CH2CO}-AAWY[NMeF]I[Sar][Phe(3-OCH2COOH)][Phe(4-COOH)]R[NMeF][X1][NMeA][NMeF][dC]-{Piperidinyl(4-CH2COOH)}; thioether N-15) |  |  |  |  |  |  | 12 | 40 | 100 | 100
6 | CC[C@H](C)[C@@H]1NC(=O)[C@H](Cc2ccccc2)N(C)C(=O)[C@H](Cc2ccc(O)cc2)NC(=O)[C@H](Cc2c[nH]c3ncccc23)NC(=O)[C@H](CCC(=O)O)NC(=O)[C@H](C)NC(=O)CSC[C@H](C(=O)N[C@H](CO)C(=O)N[C@H](CO)C(=O)N[C@H](CO)C(=O)N[C@H](CCCCN)C(=O)O)NC(=O)[C@H](Cc2ccccc2)N(C)C(=O)[C@H](C)N(C)C(=O)[C@H](CC(C)C)NC(=O)[C@H](Cc2ccccc2)N(C)C(=O)[C@H](CCCNC(=N)N)NC(=O)[C@H](Cc2ccc(C(=O)O)cc2)NC(=O)[C@H](Cc2ccncc2)NC(=O)CN(C)C1=O [Myostatin_99_v40] ({CH2CO}-AE[Trp(7-aza)]Y[NMeF]I[Sar][4Pal][Phe(4-COOH)]R[NMeF]L[NMeA][NMeF][dC][dS][dS][dS][dK]-OH; thioether N-15) |  |  | 0 | 0 | 39 | 67 |  |  |  | 
